± gives the standard deviation of the averaged measurements.
Test system: SK-LMS-1
Test: relative viability vs DMSO control (72 h) (fraction); higher = more viable cells
Summary of the method: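 Serially diluted compound, 2.5 µl from source plates spanning 10 mM to 0.0002 mM, was added 24 h after sarcoma cell lines were seeded in 384-well plates at densities targeting 80–90% confluence. Plates then sat 72 h at 37 °C, 5% CO2, with 0.1% DMSO vehicle and a 5 µM positive control. Relative viability came from ATPLite as percent growth, averaged over up to triplicate wells, and was rescaled with 1 as full and 0 as none.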

| Structure (SMILES) | relative viability (0.00017 µM) | relative viability (0.00051 µM) | relative viability (0.00152 µM) | relative viability (0.00457 µM) | relative viability (0.01372 µM) | relative viability (0.04115 µM) | relative viability (0.1235 µM) | relative viability (0.3704 µM) | relative viability (1.111 µM) | relative viability (3.333 µM) | relative viability (10 µM) |
| --- | --- | --- | --- | --- | --- | --- | --- | --- | --- | --- | --- |
| O=C(Nc1cnn2ccc(N3CCC[C@@H]3c3cc(F)ccc3F)nc12)N1CC[C@H](O)C1 [Larotrectinib] | 1.12 ± 0.03 | 1.16 ± 0.051 | 1.13 ± 0.057 | 1.08 ± 0.015 | 1.07 ± 0.047 | 1.11 ± 0.025 | 1.11 ± 0.028 | 1.06 ± 0.026 | 1.08 ± 0.03 | 1.08 ± 0.032 | 1.071 ± 0.0057 |
| COCc1c(-c2cc3cc(C)cc(OC)c3s2)c2c(N)ncnn2c1CN1CCNC(=O)C1 [Rogaratinib] | 1.01 ± 0.034 | 0.992 ± 0.026 | 1.02 ± 0.022 | 1.01 ± 0.044 | 0.995 ± 0.022 | 0.992 ± 0.035 | 1 ± 0.01 | 0.975 ± 0.017 | 0.96 ± 0.036 | 0.76 ± 0.019 | 0.589 ± 0.017 |
| Cn1cnc2c(F)c(Nc3ccc(Br)cc3F)c(C(=O)NOCCO)cc21 [Binimetinib] | 1.11 ± 0.03 | 1.16 ± 0.045 | 1.13 ± 0.034 | 1.07 ± 0.073 | 1 ± 0.011 | 0.879 ± 0.01 | 0.725 ± 0.039 | 0.646 ± 0.038 | 0.61 ± 0.016 | 0.484 ± 0.011 | 0.375 ± 0.028 |
| Cn1cc(-c2cc3c(N4CCN(c5ncc([C@@](C)(N)c6ccc(F)cc6)cn5)CC4)ncnn3c2)cn1 [Avapritinib] | 0.9488 ± 0.004 | 0.959 ± 0.072 | 0.999 ± 0.047 | 0.989 ± 0.049 | 0.973 ± 0.061 | 0.978 ± 0.023 | 0.9338 ± 0.0068 | 0.911 ± 0.012 | 0.877 ± 0.03 | 0.7843 ± 0.0066 | 0.829 ± 0.026 |
| C[C@]1(O)C[C@@H](c2nc(-c3ccc4ccc(-c5ccccc5)nc4c3)c3c(N)nccn32)C1 [Linsitinib] | 1.04 ± 0.02 | 1.07 ± 0.022 | 1.05 ± 0.067 | 1.07 ± 0.025 | 1.04 ± 0.022 | 1.01 ± 0.025 | 1.01 ± 0.034 | 1.03 ± 0.019 | 1.01 ± 0.026 | 0.938 ± 0.011 | 0.71 ± 0.027 |
| Cc1cc(Nc2ncnc3ccc(NC4=NC(C)(C)CO4)cc23)ccc1Oc1ccn2ncnc2c1 [Tucatinib] | 1.1 ± 0.022 | 1.09 ± 0.06 | 1.08 ± 0.041 | 1.09 ± 0.058 | 1.08 ± 0.047 | 1.08 ± 0.034 | 1.08 ± 0.033 | 1.09 ± 0.055 | 1.09 ± 0.045 | 1.05 ± 0.025 | 0.7801 ± 0.0053 |
| Nc1cc(C(F)(F)F)c(-c2cc(N3CCOCC3)nc(N3CCOCC3)n2)cn1 [Buparlisib] | 1.02 ± 0.031 | 0.9986 ± 0.0078 | 1.01 ± 0.035 | 1.02 ± 0.013 | 1.01 ± 0.038 | 0.9304 ± 0.0067 | 0.825 ± 0.018 | 0.686 ± 0.015 | 0.3771 ± 0.0013 | 0.148 ± 0.0057 | 0.102 ± 0.0085 |
| C[C@@H]1CCN(C(=O)CC#N)C[C@@H]1N(C)c1ncnc2[nH]ccc12 [Tofacitinib] | 1.08 ± 0.053 | 1.05 ± 0.057 | 1.1 ± 0.057 | 1.11 ± 0.042 | 1.09 ± 0.064 | 1.07 ± 0.031 | 1.062 ± 0.0089 | 1.07 ± 0.022 | 1.07 ± 0.039 | 1.03 ± 0.039 | 0.902 ± 0.056 |
| COc1cc2/c(=N/c3ccc(Br)cc3F)nc[nH]c2cc1OCC1CCN(C)CC1 [Vandetanib] | 0.994 ± 0.015 | 1.01 ± 0.029 | 1.02 ± 0.049 | 1.08 ± 0.015 | 1.02 ± 0.09 | 1.05 ± 0.039 | 1.01 ± 0.015 | 1.03 ± 0.074 | 0.939 ± 0.011 | 0.484 ± 0.0052 | 0.103 ± 0.014 |
| CCCS(=O)(=O)Nc1ccc(F)c(C(=O)c2c[nH]c3ncc(-c4ccc(Cl)cc4)cc23)c1F [Vemurafenib] | 0.994 ± 0.053 | 0.988 ± 0.079 | 1.01 ± 0.081 | 1.06 ± 0.053 | 1.03 ± 0.028 | 0.979 ± 0.06 | 1.02 ± 0.013 | 0.959 ± 0.01 | 0.855 ± 0.033 | 0.667 ± 0.018 | 0.697 ± 0.1 |
| C=CC(=O)N1CCC([C@@H]2CCNc3c(C(N)=O)c(-c4ccc(Oc5ccccc5)cc4)nn32)CC1 [Zanubrutinib] | 0.996 ± 0.023 | 1.04 ± 0.055 | 1.03 ± 0.05 | 1.051 ± 0.0069 | 1.01 ± 0.06 | 1.05 ± 0.015 | 1.03 ± 0.025 | 1.08 ± 0.021 | 1.06 ± 0.012 | 1.07 ± 0.012 | 1.05 ± 0.04 |
| CC(=O)Nc1cccc(-n2c(=O)n(C3CC3)c(=O)c3c(Nc4ccc(I)cc4F)n(C)c(=O)c(C)c32)c1 [Trametinib] | 1.01 ± 0.027 | 1.02 ± 0.06 | 1.06 ± 0.03 | 0.905 ± 0.034 | 0.575 ± 0.025 | 0.399 ± 0.01 | 0.327 ± 0.0053 | 0.27 ± 0.0086 | 0.25 ± 0.0039 | 0.225 ± 0.0081 | 0.193 ± 0.0022 |
| C=CC(=O)N1CCC[C@@H](n2nc(-c3ccc(Oc4ccccc4)cc3)c3c(N)ncnc32)C1 [Ibrutinib] | 1.04 ± 0.048 | 1.01 ± 0.058 | 1.02 ± 0.045 | 1.03 ± 0.04 | 1.04 ± 0.015 | 1.03 ± 0.016 | 1.05 ± 0.055 | 1.05 ± 0.028 | 1.05 ± 0.012 | 0.9551 ± 0.0066 | 0.693 ± 0.032 |
| Cc1ccc(F)c(NC(=O)Nc2ccc(-c3cccc4[nH]nc(N)c34)cc2)c1 [Linifanib] | 0.97 ± 0.011 | 1 ± 0.02 | 1.02 ± 0.022 | 1.01 ± 0.038 | 1.03 ± 0.037 | 1.01 ± 0.041 | 1.02 ± 0.05 | 1.04 ± 0.059 | 1.099 ± 0.0016 | 1.05 ± 0.058 | 1.06 ± 0.075 |
| CC[C@H](Nc1ncnc2[nH]cnc12)c1nc2cccc(F)c2c(=O)n1-c1ccccc1 [Idelalisib] | 1.02 ± 0.019 | 1.02 ± 0.046 | 1.02 ± 0.084 | 1.01 ± 0.028 | 0.991 ± 0.034 | 1.02 ± 0.041 | 0.972 ± 0.049 | 0.929 ± 0.035 | 0.838 ± 0.049 | 0.71 ± 0.03 | 0.618 ± 0.025 |
| CC(C)(C)c1cc(NC(=O)Nc2ccc(-c3cn4c(n3)sc3cc(OCCN5CCOCC5)ccc34)cc2)no1 [Quizartinib] | 1.05 ± 0.018 | 1.07 ± 0.038 | 1.07 ± 0.029 | 1.03 ± 0.042 | 1.06 ± 0.043 | 1.05 ± 0.04 | 1.06 ± 0.018 | 0.979 ± 0.04 | 0.932 ± 0.019 | 0.832 ± 0.045 | 0.528 ± 0.029 |
| CNC(=O)c1cc(Oc2ccc(NC(=O)Nc3ccc(Cl)c(C(F)(F)F)c3)c(F)c2)ccn1 [Regorafenib] | 1.12 ± 0.046 | 1.11 ± 0.018 | 1.12 ± 0.082 | 1.11 ± 0.03 | 1.17 ± 0.053 | 1.08 ± 0.073 | 1.11 ± 0.079 | 1.05 ± 0.036 | 0.938 ± 0.066 | 0.719 ± 0.035 | 0.0852 ± 0.017 |
| CNC(=O)c1ccc(-c2cnc3ncc(Cc4ccc5ncccc5c4)n3n2)cc1F [Capmatinib] | 1.02 ± 0.019 | 1 ± 0.07 | 0.987 ± 0.015 | 0.882 ± 0.031 | 0.617 ± 0.047 | 0.536 ± 0.0061 | 0.532 ± 0.0098 | 0.53 ± 0.013 | 0.512 ± 0.012 | 0.496 ± 0.017 | 0.5154 ± 0.005 |

From the supplement of paper PMC10883282
